Source: patent publication US20020183518A1, “Modulators of proteins with phosphotyrosine recognition units” (ONTOGEN CORPORATION, priority 1995, published 2002)

How the values were obtained:
Assay type in all cases: biochemical
PTPα = PTPα (Homo sapiens, UniProt P18433); assay: In vitro PTPase inhibition assay (pNPP, colorimetric), PTPα; details: Table 8; 100 μM compound
Method: (§1) The ability of the compounds of the present invention, such as the cinnamic 4 acid derivative compounds of Example 2, to inhibit the PTPase activity of PTP-1B, CD45, PTP-1C, and PTPα was determined using modifications of the PTP-1B and CD45 activity assays described in Examples 3 and 4.
(§2) First, 0.001 mmol of the cinnamic acid derivative (or other PTPase inhibitor compound) was dissolved in 100 ul of DMSO to create a 10 mM stock solution. The 10 mM stock solution was used to add varying concentrations (100 uM, 133 uM, 10 uM, 3 uM, 1 uM, 0.3 uM, 0.1 uM, 0.03 uM, 0.01 uM or 0.003 uM) of the inhibitor compound to a series of otherwise identical PTPase activity assay reactions (100 ul final volume in microtiter wells). Thus, each 100 ul reaction contained 10 ul PTPase enzyme stock solution (final phosphatase concentration of approximately 20 ng/well), 70 ul activity assay buffer, 10 ul pNPP stock solution (final pNPP concentration of 0.9 mM for PTP-1B assay, 0.93 mM for CD45 assay, 0.5 mM for PTPα assay, and 8 mM for PTP-1C assay), and 10 ul of the diluted inhibitor compound in DMSO. Assay buffers contained: for CD45 and PTP-1B assays, 100 mM sodium acetate at pH 6.0, 1 mM EDTA, 0.1% Triton X-100, and 15 mM bME; for PTP-1C assays, 100 mM sodium acetate at pH 5.5, 0.1% BSA, and 15 mM bME; for PTPα assays, 100 mM sodium acetate at pH 5.25, 0.1% BSA, and 15 mM bME. Purified phosphatase was added to the reaction mixtures to begin the reactions; the reactions were incubated at 37° C. for 60 min. (for PTP-1B and CD45 assays) or at 27° C. for 60 min. (for PTP-1C and PTPα assays), stopped, and colorimetrically analyzed as described above. As positive and negative controls, reactions were performed containing 10 ul DMSO with no inhibitor compound or containing the known PTPase inhibitors vanadate (final concentration 0.5 mM; for PTP-1B and CD45 assays) or ammonium molybdate (final concentration 1 mM; for PTP-1C and PTPα assays) substituted for the inhibitor compound of the invention.
(§3) The concentration of inhibitor compound required to inhibit 50% of the PTPase activity (IC50) was determined as follows. First, absorbance readings from the negative control reactions were treated as a baseline and subtracted from the absorbance readings of the experimental reactions. Then, for each reaction, a percent inhibition was calculated using the following formula: […]
(§4) The ability of the compounds of the present invention, such as the cinnamic acid derivative compounds of Example 2, to inhibit the PTPase activity of PTP-1B, CD45, PTP-1C, and PTPα was determined using modifications of the PTP-1B and CD45 activity assays described in Examples 3 and 4.
as §2, with “uM, 33” for “uM, 133”, “EDTA, 0. 1%” for “EDTA, 0.1%”, “at 27 C” for “at 27° C.”, “min.” for “min. (for PTP-1C and PTPα assays), stopped, and colorimetrically analyzed as described above. As positive and negative controls, reactions were performed containing 10 ul DMSO with no inhibitor compound or containing the known PTPase inhibitors vanadate (final concentration 0.5 mM; for PTP-1B and CD45 assays) or ammonium molybdate (final concentration 1 mM; for PTP-1C and PTPα assays) substituted for the inhibitor compound of the invention.”

PTP-1C = PTP-1C (Homo sapiens, UniProt P29350); assay: In vitro PTPase inhibition assay (pNPP, colorimetric), PTP-1C; details: Table 8; 100 μM compound
Method: as §1, §2, §3, §4
as §2, with “uM, 33” for “uM, 133”, “EDTA, 0. 1%” for “EDTA, 0.1%”, “at 27 C” for “at 27° C.”, “min.” for “min. (for PTP-1C and PTPα assays), stopped, and colorimetrically analyzed as described above. As positive and negative controls, reactions were performed containing 10 ul DMSO with no inhibitor compound or containing the known PTPase inhibitors vanadate (final concentration 0.5 mM; for PTP-1B and CD45 assays) or ammonium molybdate (final concentration 1 mM; for PTP-1C and PTPα assays) substituted for the inhibitor compound of the invention.”

PTP-1B = molecular target: T1, PTP-1B (Homo sapiens, UniProt P18031); assay: In vitro PTPase inhibition assay (pNPP, colorimetric), PTP-1B; details: Table 8; 1 μM compound
T1 construct: known to encode a 321 amino acid fragment containing the PTP-1B catalytic domain and having PTPase activity; made in house; host or cells: E. coli DH5α, plasmid pGEX-3X-PTP-1B
T1 sequence (P18031 3-277 limits assumed): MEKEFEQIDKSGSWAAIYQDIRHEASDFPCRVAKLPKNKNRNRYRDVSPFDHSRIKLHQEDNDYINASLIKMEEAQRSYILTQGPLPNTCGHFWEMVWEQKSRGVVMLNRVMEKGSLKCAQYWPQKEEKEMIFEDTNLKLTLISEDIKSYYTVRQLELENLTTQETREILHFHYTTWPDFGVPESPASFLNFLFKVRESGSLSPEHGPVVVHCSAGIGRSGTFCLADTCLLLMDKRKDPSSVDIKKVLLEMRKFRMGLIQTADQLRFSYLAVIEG

Chain of PTPα (P18433 20-802): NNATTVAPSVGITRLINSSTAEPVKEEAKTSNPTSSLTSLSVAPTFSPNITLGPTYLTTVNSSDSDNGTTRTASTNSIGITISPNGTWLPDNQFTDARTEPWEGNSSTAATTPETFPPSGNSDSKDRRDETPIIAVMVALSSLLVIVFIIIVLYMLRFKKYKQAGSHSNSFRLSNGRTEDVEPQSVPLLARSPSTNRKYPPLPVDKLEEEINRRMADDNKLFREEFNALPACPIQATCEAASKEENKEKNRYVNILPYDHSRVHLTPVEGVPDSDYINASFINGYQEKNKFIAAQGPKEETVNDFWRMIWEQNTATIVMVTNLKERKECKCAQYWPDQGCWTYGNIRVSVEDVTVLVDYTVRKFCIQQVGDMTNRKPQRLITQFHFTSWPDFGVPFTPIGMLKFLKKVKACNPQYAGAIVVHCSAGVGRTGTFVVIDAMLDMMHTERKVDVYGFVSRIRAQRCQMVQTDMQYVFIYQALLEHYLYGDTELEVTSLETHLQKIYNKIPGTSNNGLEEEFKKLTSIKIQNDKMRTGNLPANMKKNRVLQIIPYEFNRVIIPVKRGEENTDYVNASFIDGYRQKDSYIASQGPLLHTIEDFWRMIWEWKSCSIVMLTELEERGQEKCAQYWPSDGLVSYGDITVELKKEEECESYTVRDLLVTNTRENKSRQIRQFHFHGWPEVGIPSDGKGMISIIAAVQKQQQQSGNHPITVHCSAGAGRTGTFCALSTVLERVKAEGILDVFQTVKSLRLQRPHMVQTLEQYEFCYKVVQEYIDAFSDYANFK
Chain of PTP-1C (P29350 whole entry, species assumed): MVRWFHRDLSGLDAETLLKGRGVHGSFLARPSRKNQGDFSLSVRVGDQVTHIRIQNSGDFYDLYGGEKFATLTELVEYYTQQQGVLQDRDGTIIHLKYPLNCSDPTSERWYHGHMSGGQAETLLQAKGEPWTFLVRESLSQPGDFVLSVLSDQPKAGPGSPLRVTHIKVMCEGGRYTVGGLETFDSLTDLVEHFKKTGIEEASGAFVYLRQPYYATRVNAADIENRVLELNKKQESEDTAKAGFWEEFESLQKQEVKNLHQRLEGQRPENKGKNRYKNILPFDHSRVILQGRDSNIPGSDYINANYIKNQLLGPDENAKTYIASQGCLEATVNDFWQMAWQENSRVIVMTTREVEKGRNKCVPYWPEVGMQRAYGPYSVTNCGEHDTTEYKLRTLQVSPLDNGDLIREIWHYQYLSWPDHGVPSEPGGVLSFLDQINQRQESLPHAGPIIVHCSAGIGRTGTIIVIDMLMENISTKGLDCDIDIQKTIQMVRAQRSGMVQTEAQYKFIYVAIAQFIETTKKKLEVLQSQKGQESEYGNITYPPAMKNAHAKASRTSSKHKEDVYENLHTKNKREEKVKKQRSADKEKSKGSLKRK

Compound | % inhibition of PTPα at 100 μM (PTPα) [%] | % inhibition of PTP1C at 100 μM (PTP-1C) [%] | % inhibition of PTP1B at 1 μM (PTP-1B) [%]
O=C(O)/C=C/c1ccc(C(=O)OC(C(=O)NCCC(=O)O)c2ccc(Br)cc2)cc1 (racemic) [Compound 36] | 0 | 42 | 52
O=C(O)/C=C/c1ccc(C(=O)OC(C(=O)NCCCCCC(=O)O)c2ccc(Br)cc2)cc1 (racemic) [Compound 37] | 63 | 59 | 85
CCCCCCC(OC(=O)c1ccc(/C=C/C(=O)O)cc1)C(=O)NCCC(=O)O (racemic) [Compound 38] | 71 | 63 | 93
CCCCCCC(OC(=O)c1ccc(/C=C/C(=O)O)cc1)C(=O)NCCCCCC(=O)O (racemic) [Compound 39] | 47 | 53 | 82
CCCCCCCCCC(OC(=O)c1ccc(/C=C/C(=O)O)cc1)C(=O)NCCC(=O)O (racemic) [Compound 40] | 82 | 62 | 88
CCCCCCCCCC(OC(=O)c1ccc(/C=C/C(=O)O)cc1)C(=O)NCCCCCC(=O)O (racemic) [Compound 41] | 20 | 17 | 39
COc1ccc(C(=O)OC(C(=O)NCCC(=O)O)c2ccc(/C=C/C(=O)O)cc2)cc1 (racemic) [Compound 42] | 92 | 88 | 84
COc1ccc(C(=O)OC(C(=O)NCCCCCC(=O)O)c2ccc(/C=C/C(=O)O)cc2)cc1 (racemic) [Compound 43] | 82 | 79 | 76
O=C(O)/C=C/c1ccc(C(OC(=O)c2ccc([N+](=O)[O-])cc2)C(=O)NCCC(=O)O)cc1 (racemic) [Compound 44] | 87 | 86 | 79
O=C(O)/C=C/c1ccc(C(OC(=O)/C=C/c2ccc(F)cc2)C(=O)NCCC(=O)O)cc1 (racemic) [Compound 45] | 85 | 84 | 85
O=C(O)/C=C/c1ccc(C(OC(=O)/C=C/c2ccc(F)cc2)C(=O)NCCCCCC(=O)O)cc1 (racemic) [Compound 46] | 73 | 61 | 75
CCCC(CCC)C(=O)OC(C(=O)NCCC(=O)O)c1ccc(/C=C/C(=O)O)cc1 (racemic) [Compound 47] | 48 | 63 | 68
CCCC(CCC)C(=O)OC(C(=O)NCCCCCC(=O)O)c1ccc(/C=C/C(=O)O)cc1 (racemic) [Compound 48] | 3 | 33 | 69
O=C(O)/C=C/c1ccc(C(OC(=O)CCC2CCCC2)C(=O)NCCC(=O)O)cc1 (racemic) [Compound 49] | 0 | 35 | 37
O=C(O)/C=C/c1ccc(C(OC(=O)CCC2CCCC2)C(=O)NCCCCCC(=O)O)cc1 (racemic) [Compound 50] | 37 | 25 | 50
